One test deals with chickweed. Nature of the test: Test C postemergence herbicide test. The format is in vivo, Stellaria media. From the text: At the same time, plants selected from these crop and weed species and also barley (winter barley, Hordeum vulgare), […]), chickweed (common chickweed, Stellaria media), deadnettle (henbit deadnettle, Lamium amplexicaule), and canarygrass (littleseed canarygrass, Phalaris minor) were planted in pots containing Redi-Earth® planting medium (Scotts Company, 14111 Scottslawn Road, Marysville, Ohio 43041) comprising spaghnum peat moss, vermiculite, wetting agent and starter nutrients and treated with postemergence applications of test chemicals formulated in the same manner. Plants ranged in height from 2 to 18 cm (1- to 4-leaf stage) for postemergence treatments. Treated plants and controls were maintained in a greenhouse for 13 to 15 days, after which time all species were compared to controls and visually evaluated. Plant response ratings, summarized in Table C, are based on a scale of 0 to 100 where 0 is no effect and 100 is complete control. A dash (-) response means no test result.

The test system of the next test is barnyardgrass. Briefly: Test C flooded paddy test. Particulars: Flood. The format is in vivo, Echinochloa crus-galli. The method in brief: (§1)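 2-leaf stage; flood 3 cm over soil; compound into paddy water; depth held; greenhouse 13–15 d; visual % control vs untreated (0 = none, 100 = complete); "-" = not tested.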
In a further test the test system is velvetleaf. Briefly: Test A pre-/postemergence herbicide test. Format: in vivo, Abutilon theophrasti. A digest of the protocol: (§2)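 Planted in loam–sand blend; treated the same day preemergence by directed soil spray, while separately grown plants at one- to two-leaf stage got postemergence spray. Compared visually with untreated controls after approximately 10 days; 100 means complete control.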

The test system of another test is morningglory. Briefly: Test A pre-/postemergence herbicide test. Format: in vivo, Ipomoea spp. The method in brief:
as §2

The test system of the next test is ducksalad. Nature of the test: Test C flooded paddy test. Format: in vivo, Heteranthera limosa. The following applies: Flood. A digest of the protocol: as §1
The subject of the next test is crabgrass, large. Nature of the test: Test A pre-/postemergence herbicide test. Format: in vivo, Digitaria sanguinalis. The method in brief:
as §2

Another test concerns kochia. Nature of the test: Test A pre-/postemergence herbicide test. The format is in vivo, Kochia scoparia. The method in brief:
as §2

In another test the test system is ragweed. Briefly: Test A pre-/postemergence herbicide test. The format is in vivo, Ambrosia elatior. The method in brief: as §2
A further test has as its system ryegrass, Italian. Nature of the test: Test A pre-/postemergence herbicide test. Format: in vivo, Lolium multiflorum. A digest of the protocol: as §2
The test system of a further test is galium. Nature of the test: Test A postemergence herbicide test. The format is in vivo, Galium aparine. A digest of the protocol:
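Ratings compare treated with untreated plants roughly 10 days after a postemergence application made at the one- to two-leaf stage. Scoring uses 0–100, where 0 means no effect and 100 complete control.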

Where [1] appears, read: 31 g ai/ha, scale 0 (no effect) to 100 (complete control).
Setting [2] is: 62 g ai/ha, scale 0 to 100 (0 no effect, 100 complete control).
The mark [3] stands for this setting: 125 g ai/ha, scale 0 to 100 (0 no effect, 100 complete control).
Setting [4] is: 250 g ai/ha, scale 0 to 100 (0 no effect, 100 complete control).
[5] abbreviates: 125 g ai/ha, scale of 0 to 100 where 0 is no effect and 100 is complete control, 13 to 15 days.
Where [6] appears, read: Postemergence, 125 g ai/ha, 0 to 100 scale, 0 no effect, 100 complete control.
[7] abbreviates: Postemergence, 500 g ai/ha, 0 to 100 scale (0 no effect, 100 complete control).
Setting [8] is: Preemergence, 125 g ai/ha, visual rating on 0 to 100 scale (0 no effect, 100 complete control).
Where [9] appears, read: preemergence, 500 g ai/ha, 0 to 100 scale.
The mark [10] stands for this setting: 500 g ai/ha, 0 to 100 scale (0 no effect, 100 complete control).
The mark [11] stands for this setting: 31 g ai/ha, scale 0 to 100 (0 no effect, 100 complete control).
The mark [12] stands for this setting: 62 g ai/ha, scale 0 (no effect) to 100 (complete control).
The mark [13] stands for this setting: 125 g ai/ha, visual rating, 0 to 100 scale, 0 no effect, 100 complete control, approximately 10 days, preemergence.
Setting [14] is: Postemergence, 125 g ai/ha, 0 to 100 scale, 0 is no effect, 100 is complete control.
[15] abbreviates: preemergence, 500 g ai/ha, 0 to 100 scale, 0 is no effect and 100 is complete control.
The mark [16] stands for this setting: Postemergence, 125 g ai/ha, visual rating on 0 to 100 scale (0 no effect, 100 complete control), approx. 10 days.
[17] abbreviates: Preemergence, 125 g ai/ha, 0 to 100 scale where 0 is no effect and 100 is complete control.
The mark [18] stands for this setting: Preemergence, 500 g ai/ha, visual rating on 0 to 100 scale (0 no effect, 100 complete control).
Where [19] appears, read: 125 g ai/ha, visual rating on 0 to 100 scale (0 no effect, 100 complete control), approx. 10 days.

Take `O=C1NCC(c2ccc(F)c(F)c2)C1C(=O)Nc1cccc(F)c1F` (racemic) [Compound 101]: the “Plant response rating, Chickweed” value in the test on chickweed (setting [1]) stood at 35; in the test with chickweed (setting [2]) it was 60; with chickweed (setting [3]) it was 70; in the test on chickweed (setting [4]), 80. Also, the “Plant response rating, Barnyardgrass” value in the test with barnyardgrass (setting [5]) came to 20; in the test on barnyardgrass (250 g ai/ha, scale 0 to 100) it was 55; with barnyardgrass (500 g ai/ha, scale 0 to 100), 60; in the test on barnyardgrass (1000 g ai/ha, scale 0 to 100) it was 75. Also, the “Plant response rating, Velvetleaf” value was 50 in the test with velvetleaf (setting [6]), 70 in the test on velvetleaf (setting [7]) and 40 in the test on velvetleaf (setting [9]). Also, the “Velvetleaf plant response rating” value with velvetleaf (setting [8]) worked out at 30. The “Plant response rating, Morningglory” value in the test with morningglory (setting [6]) is 30; with morningglory (setting [7]) it was 60; with morningglory (setting [9]), 50. Also, in the test on morningglory (setting [8]), the “Morningglory plant response rating” value was determined as 0. For the same molecule, the “Plant response rating, Ducksalad” value is listed as 90 in the test on ducksalad (setting [5]); 95 with ducksalad (250 g ai/ha, scale 0 to 100); 100 with ducksalad (500 g ai/ha, scale 0 to 100); 100 in the test on ducksalad (1000 g ai/ha, scale 0 to 100). Further, the “Plant response rating, Crabgrass, Large” value is 80 in the test with crabgrass, large (setting [6]); 80 with crabgrass, large (setting [7]); 100 in the test on crabgrass, large (setting [9]). Besides, in the test with crabgrass, large (setting [8]), the “Crabgrass, Large plant response rating” value was 90.

As for `Cc1ccccc1NC(=O)C1C(=O)NCC1c1cccc(C(F)(F)F)c1` (racemic) [Compound 109], the “Plant response rating, Chickweed” value with chickweed (setting [1]), with chickweed (setting [2]), in the test with chickweed (setting [3]) and with chickweed (setting [4]) was 0 in each case. For the same molecule, the “Plant response rating, Kochia” value in the test on kochia (setting [6]), in the test with kochia (setting [7]) and in the test on kochia (setting [9]) was 0 each time. Further, in the test with kochia (setting [8]), the “Kochia plant response rating” value came to 0. The “Plant response rating, Ragweed” value with ragweed (setting [6]), in the test with ragweed (setting [7]) and with ragweed (setting [9]) was 0 throughout. The “Ragweed plant response rating” value in the test on ragweed (setting [8]) is given as 0. In addition, the “Plant response rating, Ryegrass, Italian” value with ryegrass, Italian (setting [6]) is recorded as 20; in the test with ryegrass, Italian (setting [7]) it was 30; with ryegrass, Italian (setting [9]) it was 50. For the same molecule, in the test on ryegrass, Italian (setting [8]), the “Ryegrass, Italian plant response rating” value was determined as 0. Moreover, the “Plant response rating, Galium” value in the test on galium (125 g ai/ha, 0 to 100 scale, 0 no effect, 100 complete control) turned out to be 30; in the test on galium (setting [10]), 60.

Consider `O=C1NCC(c2ccc(C(F)(F)F)cc2)C1C(=O)Nc1cccc(F)c1F` (racemic) [Compound 202], for which the “Plant response rating, Chickweed” value was determined as 80 in the test on chickweed (setting [11]), 80 in the test on chickweed (setting [12]), 85 in the test with chickweed (setting [3]) and 85 in the test with chickweed (setting [4]). Besides, the “Plant response rating, Kochia” value in the test with kochia (setting [13]) was 70; in the test with kochia (setting [14]), 80; in the test on kochia (setting [15]) it was 80. Besides, the “Kochia plant response rating (0 to 100 scale, 0 is no effect, 100 is complete control)” value in the test with kochia (Postemergence, 500 g ai/ha) is 90. For the same molecule, the “Plant response rating, Ragweed” value was 50 in the test with ragweed (setting [13]), 30 in the test with ragweed (setting [14]) and 90 in the test on ragweed (setting [15]). Besides, in the test with ragweed (Postemergence, 500 g ai/ha), the “Ragweed plant response rating (0 to 100 scale, 0 is no effect, 100 is complete control)” value is 50. The “Plant response rating, Ryegrass, Italian” value in the test on ryegrass, Italian (setting [13]) is listed as 60; in the test with ryegrass, Italian (setting [14]), 30; in the test on ryegrass, Italian (setting [15]) it was 60. For the same molecule, in the test on ryegrass, Italian (Postemergence, 500 g ai/ha), the “Ryegrass, Italian plant response rating (0 to 100 scale, 0 is no effect, 100 is complete control)” value was 40. The “Plant response rating, Galium” value in the test on galium (125 g ai/ha, 0 to 100 scale, 0 is no effect, 100 is complete control) was found to be 60. Also, in the test with galium (500 g ai/ha), the “Galium plant response rating (0 to 100 scale, 0 is no effect, 100 is complete control)” value stood at 60.

With `O=C1NCC(c2cccc(Br)c2)C1C(=O)Nc1ccc(F)c(F)c1F` (centres unmarked) [Compound 310], the “Plant response rating, Chickweed” value in the test on chickweed (setting [11]) is 20; in the test on chickweed (setting [12]), 45; with chickweed (setting [3]), 90; with chickweed (setting [4]), 85. Further, the “Plant response rating, Kochia” value in the test with kochia (setting [16]), in the test on kochia (setting [7]) and in the test on kochia (setting [17]) was 30 in each case. In the test with kochia (setting [18]), the “Kochia plant response rating” value worked out at 70. Besides, the entries for the “Plant response rating, Ragweed” value in the test on ragweed (setting [16]), in the test on ragweed (setting [7]) and in the test with ragweed (setting [17]) were 20, 30 and 0, respectively. The “Ragweed plant response rating” value in the test with ragweed (setting [18]) is 0. In addition, the “Plant response rating, Ryegrass, Italian” value was found to be 30 in the test on ryegrass, Italian (setting [16]); 30 with ryegrass, Italian (setting [7]); 30 with ryegrass, Italian (setting [17]). For the same molecule, the “Ryegrass, Italian plant response rating” value in the test on ryegrass, Italian (setting [18]) was 40. Moreover, the “Plant response rating, Galium” value with galium (setting [19]) and with galium (setting [10]) was 20 throughout.

For the molecule `O=C1NCC(c2cccc(C(F)(F)F)c2)C1C(=O)Nc1ccc(F)c(F)c1F` (centres unmarked) [Compound 345], the “Plant response rating, Chickweed” value in the test with chickweed (setting [4]) was found to be 30. Further, the “Plant response rating, Kochia” value in the test with kochia (setting [16]) came out at 50; in the test on kochia (setting [17]), 10. The “Kochia plant response rating” value in the test with kochia (setting [18]) was found to be 80. Also, the “Plant response rating, Ragweed” value with ragweed (setting [16]) and in the test with ragweed (setting [17]) was 0 each time. Further, the “Ragweed plant response rating” value in the test with ragweed (setting [18]) amounted to 0. For the same molecule, the “Plant response rating, Ryegrass, Italian” value turned out to be 50 with ryegrass, Italian (setting [16]) and 0 in the test with ryegrass, Italian (setting [17]). The “Ryegrass, Italian plant response rating” value with ryegrass, Italian (setting [18]) stood at 40. Moreover, the “Plant response rating, Galium” value in the test on galium (setting [19]) turned out to be 60.

The values are drawn from patent publication US10294202B2, “Pyrrolidinones as herbicides” (FMC Corporation, priority 2013, dated 2019).
